{
  "source": "patent US20240025845A1",
  "about": "“METASTASIS-INHIBITING COMPOSITION OF NOVEL METHYLSULFONAMIDE DERIVATIVE COMPOUND” (KOREA RESEARCH INSTITUTE OF BIOSCIENCE AND BIOTECHNOLOGY, priority 2020, published 2024)",
  "key": {"[1]": {"system": "MDA-MB-231 cells", "experiment": "Wound healing assay (cancer cell movement)", "assay_type": "cell-based, human", "protocol": "(§1) In order to evaluate the cytotoxicity of the compound 1-1 according to the present invention, MTT assay was performed on a human breast cancer cell line (MDA-MB-231). Cells used in the experiment were all purchased from the American Type Culture Collection (ATCC). First, 1×10^5 MDA-MB-231 cells were divided into 200 vL of 5×10^3 cells in a 96-well plate using a DMEM medium added with 10% fetal bovine serum (FBS), […] and 50 U/ml penicillin while maintained at 37° C. under 5% CO2 air, and then incubated in a CO2 incubator for 24 hours. The purchased compound 1-1 of the present invention was treated at a concentration of 50 vM and incubated for 24 hours under the same culture conditions. After the incubation was completed, the culture medium was removed and 50 vL of 10 mg/mL MTT solution [3-(4,5-dimethylthiazol-2-yl)-2,5-diphenyltetrazolium bromide] (Sigma, St. Louis, MO, USA) was added per well and reacted at 37° C. for 4 hours. Subsequently, a supernatant was removed carefully so as to […] formazan crystals at the bottom, and 50 μL of dimethyl sulfoxide (DMSO) was added per well, and then shaken for 10 minutes, and an optical density (OD) at 590 nm was measured. […] The number of moved cells was quantified using an optical microscope (×100). […]"}, "[2]": {"system": "human breast cancer cell line (MDA-MB-231)", "experiment": "MTT cytotoxicity assay", "assay_type": "cell-based", "protocol": "as §1"}, "[3]": {"experiment": "mouse liver metabolic stability assay", "assay_type": "in vitro ADME"}, "[4]": {"system": "cancer cells", "experiment": "real-time cell movement with Holomonitor device", "assay_type": "cell-based"}, "[5]": {"system": "mouse breast cancer cell line 4T1", "experiment": "orthotopic xenograft spontaneous metastasis mouse model (metastatic breast cancer)", "assay_type": "in vivo", "source_text": "In order to test a metastasis-inhibiting effect of the compound 1-1, which was a CSE1L inhibiting compound, in a mouse model, the metastasis-inhibiting effect was confirmed using an orthotopic xenograft spontaneous metastasis model. First, a method of examining metastasis of cancer formed by subcutaneous transplantation of mouse breast cancer cell line 4T1 (murine breast cancer cell) to other tissues was used. Female 6-week-old nude mice (BALB/c) were used. To make solid cancer, the mouse breast cancer cell line 4T1 (1×10^5 murine breast cancer cells) was transplanted into the 4th Mammary Fat Pad of the mouse, and from 5 days later, the compound 1-1 was treated at 10 mg/kg and 50 mg/kg every day for 3 weeks, respectively. […] In addition, after 25 days, the mice were autopsied to confirm the number of cancer cells metastasizing to the lung. […] Through the evaluation of anti-metastasis efficacy using the metastasis breast cancer model, the metastasis-inhibiting efficacy of the compound 1-1 was confirmed through selective regulation of the CSE1L function by binding to the target protein CSE1L. Accordingly, a novel derivative was synthesized in order to secure a substance showing better activity than these substances."}, "[6]": {"target": "T1, CSE1L (Homo sapiens, UniProt P55060)", "T1 construct": "endogenous in cells", "T1 sequence (P55060 1-971)": "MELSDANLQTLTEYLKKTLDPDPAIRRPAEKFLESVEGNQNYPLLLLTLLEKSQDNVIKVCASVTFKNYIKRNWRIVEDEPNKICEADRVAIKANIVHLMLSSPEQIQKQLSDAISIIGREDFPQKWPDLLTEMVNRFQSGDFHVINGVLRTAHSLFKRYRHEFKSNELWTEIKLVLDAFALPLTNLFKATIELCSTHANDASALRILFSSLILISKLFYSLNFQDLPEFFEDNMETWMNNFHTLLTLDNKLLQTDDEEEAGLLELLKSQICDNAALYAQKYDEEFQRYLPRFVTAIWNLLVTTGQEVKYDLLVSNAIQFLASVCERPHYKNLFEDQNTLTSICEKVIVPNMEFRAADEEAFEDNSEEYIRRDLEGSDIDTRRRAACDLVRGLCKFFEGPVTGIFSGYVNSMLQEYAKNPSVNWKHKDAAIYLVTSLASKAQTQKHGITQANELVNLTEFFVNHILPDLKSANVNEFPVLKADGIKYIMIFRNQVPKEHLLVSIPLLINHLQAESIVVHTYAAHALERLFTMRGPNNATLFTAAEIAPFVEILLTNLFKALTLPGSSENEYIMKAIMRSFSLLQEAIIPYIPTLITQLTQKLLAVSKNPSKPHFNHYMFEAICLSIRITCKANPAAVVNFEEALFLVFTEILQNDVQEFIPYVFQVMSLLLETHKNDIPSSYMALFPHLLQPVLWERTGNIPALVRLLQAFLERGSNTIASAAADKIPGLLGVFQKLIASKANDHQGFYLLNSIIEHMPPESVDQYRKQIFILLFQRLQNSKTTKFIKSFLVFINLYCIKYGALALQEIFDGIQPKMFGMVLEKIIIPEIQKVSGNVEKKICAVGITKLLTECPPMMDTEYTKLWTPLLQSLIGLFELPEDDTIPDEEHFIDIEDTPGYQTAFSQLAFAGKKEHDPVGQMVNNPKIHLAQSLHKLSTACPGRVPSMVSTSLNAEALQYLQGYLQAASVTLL", "experiment": "thermal shift assay (TSA) in cells, remaining CSE1L by Western blot", "assay_type": "binding", "conditions": "cells treated 10 vM, 24 hours; 42-60° C. for 5 minutes; vs DMSO", "source_text": "A CSE1L protein was known as nuclear exportin 2, a type of nuclear exportin that played a role in moving importin-α from the intra-nucleus to the cytoplasm as a cargo protein of nuclear transport (Solsbacher, J.; Maurer, P.; Bischoff, F. R.; Schlenstedt, G. Mol. Cell. Biol. 1998, 18, 6805.). In general, importin-α and Ran-GTP, which were cargo proteins, bound to exportin CSE1L in the nucleus and transported to the cytoplasm through nuclear pores, and the obtained CSE1L-bound Ran-GTP protein was rapidly hydrolyzed to Ran GDP to have the form of a cargo free state (a state in which importin-ax was not bound). Through this series of processes, the protein played a role of substance transport. As another function, the CSE1L protein was particularly abundant in cancer cells or tissues, and reported to have roles and functions in metastasis, such as carcinogenesis, cancer cell movement, and cancer cell invasion, but since the exact mechanism has not been reported yet, it was intended to predict the interaction with a novel metastasis-targeting protein (CSE1L) and develop effective substances using molecular modeling tools. Based on a binding site of the previously identified fusarisetin compound and the target protein (CSE1L), a virtual search was conducted using about 1.5 million compound libraries (commercial focused libraries) to predict combinable compounds. […]"}, "[7]": {"system": "MDA-MB-231 cell lines", "experiment": "transwell Matrigel invasion chamber assay", "assay_type": "cell-based, human", "conditions": "MDA-MB-231, 10 and 20 vM, 20 hours, compared to control group", "protocol": "as §1"}, "[8]": {"system": "angiogenesis", "experiment": "chorioallantoic membrane (CAM) angiogenesis assay", "assay_type": "in vivo", "conditions": "fertilized egg, 4 μg", "protocol": "In order to confirm whether angiogenesis was inhibited using the compound 1-46, which had high stability in vivo, among methylsulfonamide-based derivative compounds discovered as CSE1L inhibitors, a chorioallantoin membrane (CAM) was performed. First, the surface of the fertilized viable egg was wiped with 70% ethanol, incubated at 37° C. for 4 days, and 3 ml of albumin of the viable egg was extracted and then treated with the compound 1-46 at a concentration of 4 μg, and then it was observed whether angiogenesis was inhibited."}},
  "data": [
    {"smiles": "CS(=O)(=O)N(CC(N)=O)c1ccc(C(Cl)(Cl)Cl)cc1", "note": "[Compound 1-1, 2-[N-methylsulfonyl-4-(trichloromethyl)anilino]acetamide]", "values": [
      {"measurement": "cell movement of cancer cell line (wound healing)", "setting": "[1]; MDA-MB-231, 10 and 20 μM, 24 hours, compared to control group", "result": "significantly reduced"},
      {"measurement": "cytotoxicity (MTT)", "setting": "[2]; MDA-MB-231, 50 vM, 24 hours", "result": "no cytotoxicity"},
      {"measurement": "metabolic stability", "setting": "[3]", "result": 89.8, "unit": "%"},
      {"measurement": "invasion and movement of cancer cells in real time", "setting": "[4]", "result": "inhibited the invasion and movement of cancer cells"},
      {"measurement": "change in body weight (toxicity)", "setting": "[5]; 10 mg/kg and 50 mg/kg every day for 3 weeks, compared to negative control group", "result": "no change in body weight"},
      {"measurement": "formation of cancer tissue in other organs (metastasis, bioluminescence)", "setting": "[5]; 10 mg/kg and 50 mg/kg every day, vs control group", "result": "showed a tendency to inhibit the formation of cancer tissue in other organs"},
      {"measurement": "volume and capacity of the tumors", "setting": "[5]; 10 mg/kg and 50 mg/kg, drug treatment period (16 to 24 days)", "result": "not suppressed"},
      {"measurement": "number of cancer cells metastasizing to the lung", "setting": "[5]; autopsy after 25 days, compared to control group", "result": "significantly reduced"},
      {"measurement": "amount of remaining CSE1L after heating (thermal stabilization)", "setting": "[6]", "result": "not reduced, but continuously maintained through structural stabilization"},
      {"measurement": "number of invaded cancer cells", "setting": "[7]", "result": "significantly reduced"}
    ]},
    {"smiles": "NC(=O)CN(c1ccc(C(F)(F)F)cc1)S(=O)(=O)CC(F)(F)F", "note": "[Compound 1-45]", "values": [
      {"measurement": "metabolic stability", "setting": "[3]", "result": 82.2, "unit": "%"}
    ]},
    {"smiles": "NC(=O)CN(c1ccc(C(F)(F)F)cc1)S(=O)(=O)CCC(F)(F)F", "note": "[Compound 1-46]", "values": [
      {"measurement": "cell movement of cancer cell line (wound healing)", "setting": "[1]; MDA-MB-231, compared to control group, concentration not given", "result": "significantly reduced"},
      {"measurement": "cytotoxicity (MTT)", "setting": "[2]; MDA-MB-231, 10 to 100 vM", "result": "no cytotoxicity"},
      {"measurement": "metabolic stability", "setting": "[3]", "result": 91.4, "unit": "%"},
      {"measurement": "angiogenesis inhibitory activity", "setting": "[8]", "result": "excellent angiogenesis inhibitory activity"},
      {"measurement": "number of invaded cancer cells", "setting": "[7]", "result": "significantly reduced"}
    ]}
  ]
}
